Data from patent US20250051276A1 (priority 2021, published 2025).
pEC50, pIC50: −log10 of the molar value.

How the values were obtained:
[1] = biological target: 5-HT2Cedited (accession number AAF35842.1) (Homo sapiens, UniProt P28335, I156V/I160V/N158S); assay: biochemical; assay type: binding
[2] = biological target: human recombinant 5-HT2Cedited receptor (Homo sapiens, UniProt P28335, I156V/I160V/N158S); assay: cell-based
Chain of human recombinant 5-HT2Cedited receptor (P28335 33-458 I156V/N158S/I160V limits assumed): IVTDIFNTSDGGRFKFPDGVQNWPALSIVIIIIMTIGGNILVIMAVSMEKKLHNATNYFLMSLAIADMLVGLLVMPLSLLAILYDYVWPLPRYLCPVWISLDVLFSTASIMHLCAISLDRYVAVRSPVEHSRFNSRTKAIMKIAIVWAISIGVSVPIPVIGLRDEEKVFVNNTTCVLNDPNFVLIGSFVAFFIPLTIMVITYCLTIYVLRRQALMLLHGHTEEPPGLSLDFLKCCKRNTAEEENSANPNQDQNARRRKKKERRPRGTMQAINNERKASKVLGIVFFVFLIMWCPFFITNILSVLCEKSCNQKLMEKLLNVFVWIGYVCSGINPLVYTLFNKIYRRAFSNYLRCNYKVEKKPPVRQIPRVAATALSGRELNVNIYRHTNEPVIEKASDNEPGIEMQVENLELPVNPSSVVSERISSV

Chain of 5-HT2Cedited (accession number AAF35842.1) (P28335 whole entry I156V/N158S/I160V, looked up): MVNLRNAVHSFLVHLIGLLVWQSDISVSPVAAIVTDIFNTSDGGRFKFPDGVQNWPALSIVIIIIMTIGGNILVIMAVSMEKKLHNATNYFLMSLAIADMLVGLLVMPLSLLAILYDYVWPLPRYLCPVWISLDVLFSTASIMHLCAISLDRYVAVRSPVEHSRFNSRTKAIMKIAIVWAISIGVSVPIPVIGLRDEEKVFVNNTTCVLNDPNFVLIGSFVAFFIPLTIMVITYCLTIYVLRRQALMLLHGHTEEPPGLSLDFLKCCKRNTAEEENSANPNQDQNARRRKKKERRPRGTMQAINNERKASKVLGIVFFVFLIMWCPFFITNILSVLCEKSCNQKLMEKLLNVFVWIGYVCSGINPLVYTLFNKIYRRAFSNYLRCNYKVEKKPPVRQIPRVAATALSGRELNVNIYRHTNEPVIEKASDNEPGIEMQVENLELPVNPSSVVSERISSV

| Structure (SMILES) | pIC50 [1] | pEC50 [2] |
| --- | --- | --- |
| C[C@H](Cn1ccc2nc(OCc3ccccc3)ccc21)N(C)C [Compound 1, (R)-1-(5-(benzyloxy)-1H-pyrrolo[3,2-b]pyridin-1-yl)-N,N-dimethylpropan-2-amine] | 5.00 to 6.00 | < 5.00 |
| C[C@@H](N)Cn1ccc2nc(OCc3ccccc3)ccc21 [Compound 2, (R)-1-(5-(benzyloxy)-1H-pyrrolo[3,2-b]pyridin-1-yl)propan-2-amine] | < 5.00 | < 5.00 |
| C[C@H](Cn1ccc2cc(OCc3ccccc3)ccc21)N(C)C [Compound 3, (R)-1-(5-(benzyloxy)-1H-indol-1-yl)-N,N-dimethylpropan-2-amine] | 6.00 to 7.00 | 5.00 to 6.00 |
| CN[C@H](C)Cn1ccc2cc(OCc3ccccc3)ccc21 [Compound 4, (R)-1-(5-(benzyloxy)-1H-indol-1-yl)-N-methylpropan-2-amine] | 5.00 to 6.00 | 5.00 to 6.00 |
| C[C@@H](N)Cn1ccc2cc(OCc3ccc(F)cc3)ccc21 [Compound 5, (R)-1-(5-((4-fluorobenzyl)oxy)-1H-indol-1-yl)propan-2-amine] | 6.00 to 7.00 | 5.00 to 6.00 |
| C[C@@H](N)Cn1ccc2cc(OCc3cccc(F)c3)ccc21 [Compound 6, (R)-1-(5-((3-fluorobenzyl)oxy)-1H-indol-1-yl)propan-2-amine] | 6.00 to 7.00 | 5.00 to 6.00 |
| C[C@@H](N)Cn1ccc2cc(OCc3ccccc3F)ccc21 [Compound 7, (R)-1-(5-((2-fluorobenzyl)oxy)-1H-indol-1-yl)propan-2-amine] | 5.00 to 6.00 | 5.00 to 6.00 |
| C[C@H](Cn1ccc2cc(OCc3ccc(F)cc3)ccc21)N(C)C [Compound 8, (R)-1-(5-((4-fluorobenzyl)oxy)-1H-indol-1-yl)-N,N-dimethylpropan-2-amine] | 6.00 to 7.00 | < 5.00 |
| C[C@H](Cn1ccc2cc(OCc3cccc(F)c3)ccc21)N(C)C [Compound 9, (R)-1-(5-((3-fluorobenzyl)oxy)-1H-indol-1-yl)-N,N-dimethylpropan-2-amine] | 6.00 to 7.00 | < 5.00 |
| C[C@H](Cn1ccc2cc(OCc3ccccc3F)ccc21)N(C)C [Compound 10, (R)-1-(5-((2-fluorobenzyl)oxy)-1H-indol-1-yl)-N,N-dimethylpropan-2-amine] | 6.00 to 7.00 | < 5.00 |
| CCN(CC)[C@H](C)Cn1ccc2cc(OCc3ccccc3)ccc21 [Compound 11, (R)-1-(5-(benzyloxy)-1H-indol-1-yl)-N,N-diethylpropan-2-amine] | 5.00 to 6.00 | < 5.00 |
| C[C@H](Cn1ccc2cc(OCc3ccccc3)ccc21)N1CCCC1 [Compound 12, (R)-5-(benzyloxy)-1-(2-(pyrrolidin-1-yl)propyl)-1H-indole] | 5.00 to 6.00 | < 5.00 |
